Values of other authors as cited in patent publication US5411479A, “Cancer treatment and catheter for use in treatment” (priority 1993, dated 1995).

How the values were obtained:
hepatocellular tumor = settings: for activity in hepatocellular tumor: systemic chemotherapy, Phase II trials
[1] = tested on: colon cancer metastatic to the liver; settings: for effectiveness of arterial infusion: drug delivered directly to liver tumor cells
[2] = for Local hepatobiliary toxicities (hepatitis, cholecystitis, biliary sclerosis, stenosis and stricture): conventional HAI; for Systemic toxicity of HAI chemotherapy: conventional doses; for Hepatitis (nausea, vomiting, abdominal pain, jaundice, elevated liver transaminases and bilirubin): in vivo

SMILES: O=c1[nH]cc(F)c(=O)[nH]1 [5-FU, 5-fluorouracil]
- activity in hepatocellular tumor (hepatocellular tumor): significant activity
- effectiveness of arterial infusion [1]: increases their effectiveness
- dose-response effect ([1]; in vivo): displays a dose-response effect
- Local hepatobiliary toxicities (hepatitis, cholecystitis, biliary sclerosis, stenosis and stricture) [2]: up to 50 % of the patients
- Systemic toxicity of HAI chemotherapy [2]: has not been a major problem
- Hepatitis (nausea, vomiting, abdominal pain, jaundice, elevated liver transaminases and bilirubin) [2]: has occurred

SMILES: O=c1[nH]c(=O)n([C@H]2C[C@H](O)[C@@H](CO)O2)cc1F [FUDR, floxuridine]
- effectiveness of arterial infusion [1]: increases their effectiveness
- Local hepatobiliary toxicities (hepatitis, cholecystitis, biliary sclerosis, stenosis and stricture) [2]: up to 50 % of the patients
- Systemic toxicity of HAI chemotherapy [2]: has not been a major problem
- Hepatitis (nausea, vomiting, abdominal pain, jaundice, elevated liver transaminases and bilirubin) [2]: has occurred

SMILES: COc1cccc2c1C(=O)c1c(O)c3c(c(O)c1C2=O)C[C@@](O)(C(=O)CO)C[C@@H]3O[C@H]1C[C@H](N)[C@H](O)[C@H](C)O1 [doxorubicin]
- objective therapeutic responses (hepatocellular tumor; doxorubicin 60 mg/m^2 every 3 weeks): approximately 20 % of the patients
- toxicity (hepatocellular tumor; doxorubicin 75 mg/m^2 every 3 weeks): Substantial toxicity
- objective response (hepatocellular tumor; doxorubicin 75 mg/m^2 every 3 weeks, East African blacks, of 50 patients treated): 22 patients
- complete response (hepatocellular tumor; doxorubicin 75 mg/m^2 every 3 weeks, among 22 objective responses, 50 patients treated): 3 patients
- activity in hepatocellular tumor (hepatocellular tumor): significant activity
